For experiment [1], the target named is T1, CK2α (Homo sapiens, UniProt P68400).
T1 construct: 571 nM CK2α_WT (residues 2-329); made in house
T1 sequence (P68400 2-329): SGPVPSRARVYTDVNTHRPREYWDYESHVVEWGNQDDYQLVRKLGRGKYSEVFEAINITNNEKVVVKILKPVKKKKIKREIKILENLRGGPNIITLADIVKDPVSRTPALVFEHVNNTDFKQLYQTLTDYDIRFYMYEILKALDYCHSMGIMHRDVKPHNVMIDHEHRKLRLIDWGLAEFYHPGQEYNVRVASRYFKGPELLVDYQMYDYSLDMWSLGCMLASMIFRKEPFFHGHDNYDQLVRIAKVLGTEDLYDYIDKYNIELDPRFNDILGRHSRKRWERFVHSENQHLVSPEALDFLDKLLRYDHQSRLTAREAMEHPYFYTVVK
As to the kind of experiment: Fluorescence polarisation (FP) assay: displacement of a CK2β-like fluorescent probe from CK2α. It is filed as binding. Particulars: CK2α_WT (residues 2-329), fluorescein-labelled CK2β-based peptide probe, ±SEM. The text has this:
To assess the ability of the synthesised linear peptides to displace a CK2β-like fluorescent probe from CK2α, a fluorescence polarisation (FP) assay was used (Table 1, ESI 1.3.2 and Fig. S2, ESI ^†). […]
(§1) 1.5 Biophysical experiments
(§2) 1.5.1 Protein expression and purification
Three constructs of CK2α were used in this study. For FP assays, CK2α_WT was used (residues 2-329). […]
These constructs were cloned, expressed, and purified as previously described.19 1.5.2 Fluorescence polarisation
IC50’s were determined using a PHERAstar FS plate reader (BMG labtech). The fluorescein probe was measured using 485 nm excitation and 530 nm emission. The fluorescein probe was covalently linked to the N-terminus of the linear CK2β-based peptide RLYGFKIHPMAYQLQ. IC50’s were measured using 500, 167, 16.7, 8.33 and 0 μM of the test peptide at a constant concentration of DMSO. P7C8, P8C9, P+L and P+ were tested at concentrations of 50.0, 16.7, 1.67, 0.833 and 0 μM due to their higher potencies. The experiments were performed in a Corning 384-well plate with final concentrations of 571 nM CK2α_WT (residues 2-329), 7.4 μM fluorescent peptide (fluorescein probe was covalently linked to the N-terminus of the linear CK2β-based peptide RLYGFKIHPMAYQLQ), 200 mM NaCl, 40mM TRIS, 20 mM MgCl2 and pH 7.5. The plates were read after a 45 min incubation period. […]
(Fluorescence polarisation rises when a labelled molecule tumbles more slowly, as on binding a larger partner.)

The target in experiment [2] is T2, CK2α (Homo sapiens, UniProt P68400, K74A/K75A/K76A/R21S).
T2 construct: CK2α_KA (residues 2-329) contained four mutations; made in house
T2 sequence (P68400 2-329 R21S/K74A/K75A/K76A): T1 sequence (P68400 2-329) with R20S, K73A, K74A, K75A
Description: Isothermal titration calorimetry (ITC) binding to CK2α. The settings on record: 25 °C, CK2α_KA.
Excerpt: Ligand efficiency (LE) is a commonly used statistic to evaluate and compare the effectiveness of drug candidates.17 Mathematically, it is related to the IC50 of the molecule, as well as the number of heavy atoms (non-hydrogen) it contains, as detailed in Equation 1. 18
Equation 1 Mathematical expression for the ligand efficiencies of compounds.18 pIC50 = -log10(IC50) LE = Number of non ‒ H atoms […]
greatest activity with the fewest heavy atoms.
as §1, §2
Three constructs of CK2α were used in this study. For FP assays, CK2α_WT was used (residues 2-329).
For ITC CK2α_KA construct was used whilst CK2α_FP10 was used for crystallisation purposes. CK2α_KA (residues 2-329) contained four mutations designed to aid crystallisation and solubility by reducing the overall charge of the protein; R21S, K74A, K75A and K76A. CK2α_FP 10 contained one mutation (R21S) and an N-terminal extension […] aimed at mimicking a substrate peptide for CK2α. These constructs were cloned, expressed, and purified as previously described.19 1.5.2 Fluorescence polarisation
IC50’s were determined using a PHERAstar FS plate reader (BMG labtech). The fluorescein probe was measured using 485 nm excitation and 530 nm emission. The fluorescein probe was covalently linked to the N-terminus of the linear CK2β-based peptide RLYGFKIHPMAYQLQ. IC50’s were measured using 500, 167, 16.7, 8.33 and 0 μM of the test peptide at a constant concentration of DMSO. P7C8, P8C9, P+L and P+ were tested at concentrations of 50.0, 16.7, 1.67, 0.833 and 0 μM due to their higher potencies. The experiments were performed in a Corning 384-well plate with final concentrations of 571 nM CK2α_WT (residues 2-329), 7.4 μM fluorescent peptide (fluorescein probe was covalently linked to the N-terminus of the linear CK2β-based peptide RLYGFKIHPMAYQLQ), 200 mM NaCl, 40mM TRIS, 20 mM MgCl2 and pH 7.5. The plates were read after a 45 min incubation period.
1.5.3 Isothermal titration calorimetry
All ITC experiments were performed at 25 °C using a MicroCal ITC-200 (GE Healthcare). […]
(In general: Isothermal titration calorimetry measures the heat released or taken up as one component is titrated into another.)

From PMC9004346, “Development of small cyclic peptides targeting the CK2α/β interface” (Chemical Communications (Cambridge, England), 2022) come the findings set out here.

Usually IC50 stands for the point on the concentration scale where inhibition reaches its midpoint. Low values mean higher potency, high ones lower potency. In general, Kd refers to the concentration at which binding is half-saturated. Low values mean tighter binding, high ones weaker binding.

Numbering of substitutions follows the chain as printed. *1 amine or outer side, *2 acyl side, *3 side chain or, on linkers, in order; H or OH if unused. Where a SMILES comes first, the peptide text is derived from it. Bridges are numbered along the chain shown (N, C = ends). [ ]: non-standard residue; d: D form. Trp(2-yl) = O=C([C@H](Cc1c([*:3])[nH]c2ccccc12)N[*:1])[*:2]; hCys = N[C@@H](CCS)C(=O)O

`CC(=O)N[C@H]1CCSc2[nH]c3ccccc3c2C[C@@H](C(N)=O)NC(=O)[C@H](CCCCN)NC(=O)[C@H](Cc2ccccc2)NC(=O)CNC(=O)[C@H](Cc2ccc(O)cc2)NC(=O)[C@H](CC(C)C)NC(=O)[C@H](CCCNC(=N)N)NC1=O` [Peptide P8C9, (hC)C9RLYGFKWC9] (Ac-[hCys]RLYGFK[Trp(2-yl)]-NH2; thioether 1-8): the 50% inhibitory concentration (IC50) on CK2α [1] amounted to 1700 ± 300 nM. Also, at CK2α [2], the Kd is 750 nM.
